Key:
Assay type in all cases: cell-based
[1] = tested on: DCs induced from C57BL/6 mouse bone marrow cells with Flt-3L; experiment: Comparison with known regulatory DC-inducing agents, DC induction system using Flt-3L (Example 3); conditions: Flt-3L system, extract and γ-oryzanol 50 μg/mL, LPS 1 ng/mL
Description: (§1) The hexane fraction (No. 8) (in Table 1) prepared in Example 1 from wheat bran fermented with koji was used for the test. Since GM-CSF is used as a DC-inducing agent in the above-mentioned reports concerning rapamycin and IL-10/TGF-β, DCs were induced in each system of GM-CSF and Flt-3L and then each regulatory DC-inducing agent was evaluated.
In a manner similar to the experimental method in Example 2, bone marrow cells were prepared from C57BL/6 mouse thigh bone, the cells were suspended at 1×10^6 cells/mL in a medium, and then Flt-3L was added at 100 ng/mL. An extract from wheat bran fermented with koji, γ-oryzanol (Wako Pure Chemical Industries, Japan), or IL-10/TGF-β (produced by R&D systems and Peprotech, respectively) were added at 50 μg/mL for the former two or at 20 ng/mL for the latter two on day 0 after the initiation of culture. Rapamycin (Wako Pure Chemical Industries, Japan) was added at 10 ng/mL on day 3 after the initiation of culture. Culture was performed for 7 days and, at the time point of the last 24 hours of culture, LPS was added in a final concentration of 1 ng/mL.
Regarding an evaluation method, expression intensities of the cell-surface DC activation markers CD40, CD86 and MHCII and the suppression marker PD1L were evaluated by analysis using a flow cytometer. A gate was set on mDCs similarly to Example 1 and then analysis was conducted. Staining was performed using anti-CD11c-APC, anti-CD11b-APC-Cy7, anti-B220-PerCP, anti-CD40-FITC and anti-CD86-PE, or anti-CD11c-APC, anti-CD11b-APC-Cy7, anti-B220-PerCP, anti-MHCII-FITC, and anti-PD1L-PE (all available from Becton, Dickinson and Company) and then analysis was conducted.

[2] = tested on: DCs induced from C57BL/6 mouse bone marrow cells with GM-CSF; experiment: Comparison with known regulatory DC-inducing agents, DC induction system using GM-CSF (Example 3); conditions: 50 μg/mL
Description: as §1
In a manner similar to the experimental method in […], bone marrow cells were prepared from C57BL/6 mouse thigh bone, the cells were suspended at a concentration of 2×10^5 cells/mL in a medium, and then 20 ng/ml GM-CSF (R&D systems) was added. The concentration and timing of the added test substance were similar to those in the above examples.
Regarding an evaluation method, expression intensities of the cell-surface DC activation markers CD40, CD86 and MHCII and the suppression marker PD1L were evaluated by analysis using a flow cytometer. In the case of the DC induction using GM-CSF, only mDC was generated. As in the case of Flt-3L, a gate was set on mDCs defined by CD11c^+CD11b^+B220^− and then analysis was conducted.

[3] = tested on: dendritic cells induced from C57BL/6 mouse bone marrow cells with Flt-3L (mDCs, CD11c+CD11b+); experiment: Regulatory DC-inducing activity of 14-dehydroergosterol (Example 9)
Description: Regulatory DC induction activity was evaluated for 14-dehydroergosterol (14-DHE) isolated and purified from wheat bran fermented with koji as described above and subjected to structural determination. As controls, ergosterol (Wako Pure Chemical Industries, Japan) and 9(11)-dehydroergosterol (9(11)-DHE) (Sigma-Aldrich Corp.), which are ergosterol-related substances, were used. Also, as conjugated linoleic acid (CLA) that was reported in connection with the inhibition of DC activation in the past, CLA (9Z, 11E) and CLA (10E, 12Z) (both, Cayman Chemical), and linoleic acid (Wako Pure Chemical Industries, Japan) were also subjected to activity determination (J. Immunol., 175(8): 4990-8, Oct. 15, 2005). As negative controls, a sample (none) to which no compound had been administered and a sample (ctrl) to which only LPS had been administered were also subjected to activity determination.
In a manner similar to Example 2, bone marrow cells were prepared from C57BL/6 mouse thigh bone, and then dendritic cells were induced using Flt-3L. Each test substance was added simultaneously with the initiation of culture at a concentration of 1 μM, 5 μM, or 10 μM. Seven days later, LPS (from Salmonella typhosa) (Sigma-Aldrich Corp.) was added at 5 ng/mL and then 24 hours later the cells were recovered. Subsequently, the cells were stained for the following cell markers and then subjected to flow cytometry analysis. All antibodies used were produced by Becton, Dickinson and Company. CD11c^+CD11b^+ was set as a gate for mDCs and then the expression levels of CD40, CD80, CD86, I-A/I-E, and ICOS-L were measured. Also, IL-12p40 and IL-10 in culture supernatants were measured by ELISA.

[4] = tested on: human DCs from peripheral blood CD14-positive cells; experiment: Human regulatory DC-inducing activity of 14-DHE (Example 16); conditions: 14-DHE 1, 3 or 10 μM; ergosterol 10 μM; LPS/IFN-γ or cytokine cocktail 24 h
Description: Mononuclear cells were prepared from human peripheral blood by density-gradient centrifugation using Ficoll-Paque (GE Healthcare, Japan). These cells were subjected to positive selection using anti-human CD14 MACS beads (Miltenyi Biotec), so that CD14-positive cells were obtained. CD14-positive cells were cultured in RPMI1640 media (containing 10% FBS (Invitrogen), 50 μmol/L 2-mercaptoethanol (Wako Pure Chemical Industries, Japan), 50 U/mL penicillin, and 50 μg/mL streptomycin (Gibco) (Sigma Aldrich)) supplemented with recombinant human GM-CSF (800 U/mL, Leukine, Berlex) and recombinant human IL-4 (100 ng/mL, Peprotech). During culture, medium exchange was performed once every 2 days. On day 7 of culture, 14-DHE was added at a concentration of 1 μM, 3 μM, or 10 μM. To a control, 10 μM ergosterol, which was a related substance, was added. Also, to a negative control, 1% ethanol, which was a solvent for 14-DHE, was added. The cells were recovered on day 8 of culture, counted, and then suspended at a density of 3×10^5 cells/mL in the above media. To cell suspensions, 1 μg/mL LPS and 100 ng/mL IFN-γ (both, Sigma Aldrich), or cytokine cocktail (1 μg/mL PGE2 (Sigma Aldrich), 10 ng/mL TNF-α, 2 μg/mL IL-6, and 10 ng/mL IL-1β (3 (all, BD Bioscience)) were added, followed by 24-hour culture. After culture, the cells were stained for CD86, HLA-DR, and CD80. Antibodies used were all produced by BD Bioscience. The gate of DCs was set by FSC and SSC, and the expression levels of these cell surface markers were analyzed.

With γ-oryzanol the “MHCII expression in response to LPS stimulation” value [1] was “no fluctuation was observed”, the “CD40 expression in response to LPS stimulation” value ([1]; rapamycin 10 ng/mL from day 3) was “no fluctuation was observed” and the “CD86 expression in response to LPS stimulation” value ([1]; rapamycin 10 ng/mL from day 3) was “no fluctuation was observed”. For the same compound, the “expression of DC activation markers in response to LPS stimulation” value [2] was “strong increases were observed”.

With `CC(C)[C@@H](C)C=C[C@@H](C)[C@H]1CC[C@H]2C3=CC=C4C[C@@H](O)CC[C@]4(C)C3=CC[C@]12C` [9(11)-DHE, 9(11)-dehydroergosterol, reference compound] the “expression of inflammatory cytokine IL-12p40 (ELISA)” value ([3]; 1, 5 or 10 μM, LPS 5 ng/mL, culture supernatant) was “a slight decrease was observed” and the “expression levels of I-A/I-E, CD40, CD80 and CD86” value ([3]; maximum concentration (10 μM), LPS 5 ng/mL 24 h) was “slight decrease”.

For `CC(C)[C@@H](C)/C=C/[C@@H](C)[C@H]1CC[C@H]2C3=CC=C4C[C@@H](O)CC[C@]4(C)[C@H]3CC[C@]12C` [Ergosterol, ergosterol, reference compound], the “expression level of CD80 on human DCs” value [4] was “did not affect”, the “expression level of CD86 on human DCs” value [4] was “did not affect” and the “expression level of MHC class II molecule HLA-DR on human DCs” value [4] was “did not affect”.
